Laboratory results reported in patent publication US9096663B2, “Compositions and methods for treating conditions related to ephrin signaling with cupredoxins and mutants thereof” (The Board of Trustees of the University of Illinois, priority 2001, dated 2015).

What was measured:
Format in all cases: cell-based, human
[1] = test system: Astrocytoma CCF-STTG1; test: MTT assay, astrocytoma CCF-STTG1; settings: 75 μM, 24 h, 37° C.
Experimental: (§1) Cytotoxicity effects were determined by MTT assay. […] Percent cytotoxicity is expressed as percentage of ceil death as compared to that of untreated control (0% cytotoxicity).
(§2) Approximately 2×10^4 cells per well were seeded into 96-well culture plates in 100 μl of RPMI 1640 medium. […] After 24 or 48 h treatment, 10 μl of 5 mg/ml MTT solution was added to the culture and incubated for 1 h at 37° C. The MTT reaction was terminated by the addition of 40 mM HCl in isopropanol. The MTT formazan formed was measured spectrophotometrically as described earlier (Mosmann, 1983). Untreated control cells were compared to treated cells for determining viability and therefore a measure of cytotoxicity.

[2] = test system: Glioblastoma LN-229; test: MTT assay, glioblastoma LN-229; settings: 24 h; for induction of cell death, LN-229: 75 μM, 37° C.
Experimental: as §1, §2

[3] = test system: MCF-7 breast cancer cells; test: MCF-7 cell growth, cells counted in coulter counter
Experimental: The extent of cell growth inhibition was about 25% at 5 ug/ml of the 18-mer synthetic peptide as compared to untreated control.

Sequence	induction of cell death, CCF-STTG1 [1]	induction of cell death, LN-229 [2]	inhibition of MCF-7 cell growth vs untreated control ([3]; 5 ug/ml)	inhibition of MCF-7 cell growth vs untreated cells ([3]; 50 ug/ml, 48 to 72 hours) [%]	dose dependence of cytotoxicity, glioblastoma LN-229 ([2]; 10, 25, 50, 75, 100 μM)
VRIKLSTPGVYGVYCE [Plc 70-84]	showed induction of cell death	showed induction of cell death			
TFDVSKLKEGEQYMFFCT [Azu 96-113]	showed induction of cell death	showed induction of cell death	about 25%	50	increasing peptide concentrations led to increasing cytotoxicity
